Where “and” joins values, the source holds several entries; their conditions need not be identical. Equal entries are not always repeated.
What was measured:
Chlorogloea fritschii = details: cited from earlier work
Chlorella sorokiniana [1] = assay: Malathion twelve day growth study: biomass and growth rates; type: cell-based, Chlorella sorokiniana (UTEX 2805)
Protocol: (§1) • Analysis of growth parameters: Chlorophyll a was estimated following the method of Porra et al., (1989) Biochem. Biophys. Acta 975, 384-394. Biomass estimations were performed by filtering the cultures through pre-dried and weighed Whatman GF/C glass fiber filters (4.7 cm diameter; 1.2 μm pore size). After washing with 0.65 M ammonium formate, filters were then dried at 60° C. overnight and cooled in a desiccant pouch before re-weighing. Specific growth rates, divisions per day, and generation times were estimated based upon biomass data for days 6 to 9 and days 9 to 12 using the following equations:
Specific growth rate (μ, d^−1)=ln(N2/N1)/(t2−t1)
Divisions per day (Div.day^−1)=μ/ln2
Generation time (d)=1/Div.day^−1
Where N1 and N2=biomass at time 1 (t1) and time 2 (t2), respectively.
(§2) • Test strain: Chlorella sorokiniana (UTEX 2805) was obtained from UTEX Culture Collections and maintained in BG11 medium (Stanier et al., (1971) Bacteria Rev. 35: 171-205, incorporated herein in its entirety). The pH of culture medium was adjusted to 7.5±0.2 before inoculation and the alga was maintained in a temperature controlled growth chamber at 25±1° C. and 100±10 μmol m^−2 s^−1 light intensity with 12/12 h L/D cycle provided by cool white fluorescent (6500 K) T-8 bulbs. • Pesticide: A twelve day time-scale growth study was conducted to evaluate the effect of pesticide toxicity on algal growth and metabolism. The pesticide malathion (Spectracide, 50% v/v) was used and added to fresh BG11 medium to obtain final concentrations of 70, 140, 280 and 560 mg of malathion L^−1 for the treatments. […] After sterilization, C. sorokiniana was added as inoculum to obtain an initial biomass concentration of 0.075 g L^−1 in all the treatments in triplicates. The cultures were incubated in the growth chamber as explained above. For each sampling period, three randomly chosen flasks of each treatment were removed and then refrigerated at 4° C. until further analysis.

algae = details: applied alone at half solubility in water (75 mg L^−1); cited from earlier work
Chlorella sorokiniana [2] = assay: Malathion twelve day growth study: chlorophyll a and chl a/b ratio; type: cell-based, Chlorella sorokiniana (UTEX 2805)
Protocol: as §1, §2

[3] = T1, 70 mg malathion L^−1, day 6 to 9
[4] = T1, 70 mg malathion L^−1, day 9 to 12
[5] = T2, 140 mg malathion L^−1, day 6 to 9
[6] = T2, 140 mg malathion L^−1, day 9 to 12

Compound: CCOC(=O)CC(SP(=S)(OC)OC)C(=O)OCC (centres unmarked) [malathion, 2-(dimethoxyphosphinothioylthio)butanedioic acid diethyl ester]
- concentration that permanently suppressed the growth (Chlorogloea fritschii): 200 mg/L
- malathion concentration the alga can withstand / tolerated (Chlorella sorokiniana [1]): up to 140 mg L^−1
- time within which the alga could metabolize the pesticide and overcome the stress (Chlorella sorokiniana [1]; 70 mg malathion L^−1): ≤ 6 days
- inhibition in biomass (Chlorella sorokiniana [1]; 70 mg malathion L^−1, day 3): 25%
- inhibition in biomass (Chlorella sorokiniana [1]; 70 mg malathion L^−1, day 6): 37%
- inhibition in biomass (Chlorella sorokiniana [1]; 70 mg malathion L^−1, day 9): 35%
- inhibition in biomass (Chlorella sorokiniana [1]; 70 mg malathion L^−1, day 12): 18%
- time within which the alga could metabolize the pesticide and overcome the stress (Chlorella sorokiniana [1]; 140 mg malathion L^−1): ≤ 9 days
- inhibition of biomass (Chlorella sorokiniana [1]; 140 mg malathion L^−1, day 3): 35%
- inhibition of biomass (Chlorella sorokiniana [1]; 140 mg malathion L^−1, day 6): 60%
- inhibition of biomass (Chlorella sorokiniana [1]; 140 mg malathion L^−1, day 9): 68%
- inhibition of biomass (Chlorella sorokiniana [1]; 140 mg malathion L^−1, day 12): 49%
- effect on growth of the alga, in words (Chlorella sorokiniana [1]; 270 mg malathion L^−1): lethal
- effect on growth of the alga, in words (Chlorella sorokiniana [1]; 280 mg malathion L^−1 (T3)): lethal
- inhibition of biomass (Chlorella sorokiniana [1]; 280 mg malathion L^−1, day 3): 48%
- inhibition of biomass (Chlorella sorokiniana [1]; 280 mg malathion L^−1, day 6): 78%
- inhibition of biomass (Chlorella sorokiniana [1]; 280 mg malathion L^−1, day 9): 89%
- inhibition of biomass (Chlorella sorokiniana [1]; 280 mg malathion L^−1, day 12): 100%
- effect on growth of the alga, in words (Chlorella sorokiniana [1]; 540 mg malathion L^−1): lethal
- effect on growth of the alga, in words (Chlorella sorokiniana [1]; 560 mg malathion L^−1 (T4)): lethal effects
- Divisions per day (Chlorella sorokiniana [1]; [3]): 0.23
- Generation time (Chlorella sorokiniana [1]; [3]): 4.4 days
- Increase in biomass production (Chlorella sorokiniana [1]; [3]): 1.61 times
- Specific growth rate (μ) (Chlorella sorokiniana [1]; [3]): 0.16 day⁻¹
- Δ Biomass (Chlorella sorokiniana [1]; [3]): 0.103 g/L
- Divisions per day (Chlorella sorokiniana [1]; [4]): 0.27
- Generation time (Chlorella sorokiniana [1]; [4]): 3.7 days
- Increase in biomass production (Chlorella sorokiniana [1]; [4]): 1.8 times and 1.76 times
- Specific growth rate (μ) (Chlorella sorokiniana [1]; [4]): 0.19 day⁻¹
- Δ Biomass (Chlorella sorokiniana [1]; [4]): 0.206 g/L
- Divisions per day (Chlorella sorokiniana [1]; [5]): 0.12
- Generation time (Chlorella sorokiniana [1]; [5]): 8.7 days
- Increase in biomass production (Chlorella sorokiniana [1]; [5]): 1.27 times
- Specific growth rate (μ) (Chlorella sorokiniana [1]; [5]): 0.08 day⁻¹
- Δ Biomass (Chlorella sorokiniana [1]; [5]): 0.029 g/L
- Divisions per day (Chlorella sorokiniana [1]; [6]): 0.38
- Generation time (Chlorella sorokiniana [1]; [6]): 2.6 days
- Increase in biomass production (Chlorella sorokiniana [1]; [6]): 2.2 times and 2.20 times
- Specific growth rate (μ) (Chlorella sorokiniana [1]; [6]): 0.26 day⁻¹
- Δ Biomass (Chlorella sorokiniana [1]; [6]): 0.163 g/L
- toxicity to algae, in words (algae): toxic to algae
- ratio of chl a to chl b (Chlorella sorokiniana [2]; 70 mg malathion L^−1, day 0): approximately 0.85
- inhibition in chl a (Chlorella sorokiniana [2]; 70 mg malathion L^−1, day 3): 45%
- inhibition in chl a (Chlorella sorokiniana [2]; 70 mg malathion L^−1, day 6): 49%
- inhibition in chl a (Chlorella sorokiniana [2]; 70 mg malathion L^−1, day 9): 51%
- inhibition in chl a (Chlorella sorokiniana [2]; 70 mg malathion L^−1, day 12): 26%
- ratio of chl a to chl b (Chlorella sorokiniana [2]; 70 mg malathion L^−1, day 12): approximately 0.90
- ratio of chl a to chl b (Chlorella sorokiniana [2]; 140 mg malathion L^−1, day 0): approximately 0.85
- ratio of chl a to chl b (Chlorella sorokiniana [2]; 140 mg malathion L^−1, day 12): approximately 0.90
- decrease of chl a/b ratio (Chlorella sorokiniana [2]; 280 mg malathion L^−1): approximately 100%

— patent publication US20110091945A1, “METHODS OF INCREASING BIOMASS PRODUCTIVITY, LIPID INDUCTION, AND CONTROLLING METABOLITES IN ALGAE FOR PRODUCTION OF BIOFUELS USING BIOCHEMICAL STIMULANTS” (priority 2009, published 2011)
